Data reported in patent publication US9757393B2 (priority 2015, dated 2017).

Experiments:
membrane GLUT4 = test: Western blotting of membrane GLUT4 in skeletal muscle; assay type: in vivo, C57BL/6J mice; conditions: HFD-fed mice, 10 mg/kg/day
Procedure: (§1) Experimental Animals: the experiments are conducted under the guidelines of the Institutional Animal Care and Use Committee of Central Taiwan University of Science and Technology. As previously described, four-week-old male C57BL/6J mice (n=63) is purchased from the National Laboratory Animal Breeding and Research Center, Ministry of Science and Technology. After 1-week of acclimatization, mice are designed to initiate the study, and the study lasts for 12 weeks. […] The CON group and high-fat control (HF) group are given with vehicle only. The low-fat diet consisted of fat 10%, whereas the high-fat diet (HFD) consisted of fat 45% (of total energy, % kcal). The compositions of the experimental diets are shown as described. At the end of the study, food is derived from the animals (from 10 p.m. to 10 a.m.). On the next day, the mice are sacrificed, and blood and tissue are collected for analysis. Livers, skeletal muscles, and white adipose tissues (WATs) (including epididymal, mesenteric and retroperitoneal WAT) are excised and weighed, and then immediately stored in a freezer at −80° C. Heparin (30 units/mL) (Sigma) is added to blood samples. Plasma samples are collected by centrifugation at 1600 g for 15 min at 4° C. within 30 min, and plasma is obtained for insulin and leptin level analysis.
Protein extractions and immunoblots for the determination of membrane GLUT4, phospho-AMPK (Thr172), and phospho-Akt (Ser 473) proteins are carried out on frozen skeletal muscle and liver tissue from mice, which follows a previous paper. Additionally, membrane GLUT4 is carried out on frozen skeletal muscle from mice, and the total membrane fractions are collected with buffer and centrifuged as a previously described. The protein contents of membrane GLUT4, phospho-AMPK, phospho-Akt, total AMPK, and total Akt are detected by western blotting. Western blotting has been determined as described elsewhere. Subsequently, antibodies are detected using horseradish peroxidase linked to a goat anti-IgG rabbit secondary antibody and visualized using an ECL system. Membrane GLUT4, structural proteins GAPDH and β-actin are purchased from Santa Cruz Biotechnology (Santa Cruz, Calif., USA); phospho-AMPK was obtained from Abcam Inc. (Cambridge, Mass., USA); phospho-Akt, total AMPK, and total Akt are from Cell Signaling Technology, Inc. (Danver Mass., USA); the BCA protein assay kit is from Thermo Scientific (Rockford, Ill., USA); and the ECL reagent kit is from GE Healthcare BioSciences (Buckinghamshire, UK). The secondary antibody antirabbit is from Jackson ImmunoResearch Laboratories, Inc. (West Grove, Pa., USA). The density blotting is analyzed using Alpha Easy FC software (Alpha Innotech Corp., Randburg, South Africa). Structural proteins GAPDH and β-actin are obtained by stripping the nitrocellulose membrane proteins of liver and skeletal muscle, respectively.

HFD-fed C57BL/6J mice [1] = test: Blood glucose, HbA1c, blood lipids, insulin and leptin levels in HFD-fed mice; assay type: in vivo; conditions: for Blood Profiles FFA / Blood Profiles HDL-C / Blood Profiles HbA1c / Blood Profiles LDL-C: oral gavage daily for 4 weeks
Procedure: as §1
Blood Glucose and HbA1c Levels. Blood samples (0.8 mL) are collected from the retro-orbital sinuses of fasting mice, and glucose level is measured by the glucose oxidase method (model 1500; Sidekick Glucose Analyzer; YSI Inc., Yellow Springs, Ohio, USA). Percent HbA1c is detected with a Hemoglobin A1c kit (BioSystems S.A., Barcelona, Spain). Plasma triglycerides (TG), total cholesterol (TC), free fatty acids (FFA), high-density lipoprotein cholesterol (HDL-C), and low density lipoprotein cholesterol (LDL-C) are determined using commercial assay kits (Triglycerides-E test, Cholesterol-E test, and FFA-C test, Wako Pure Chemical, Osaka, Japan; HDL-C-test and LDL-C-test, Roche Diagnostics GmbH, Indianapolis, USA) according to their instructions. A mouse insulin ELISA kit (Sibayagi, Gunma, Japan) and mouse leptin ELISA kit (Morinaga, Yokohama, Japan) are used to measure blood insulin and leptin levels, respectively.

HFD-fed C57BL/6J mice [2] = test: Hepatic lipid in HFD-fed mice; assay type: in vivo; conditions: oral gavage daily for 4 weeks
Procedure: as §1
Blood Lipid and Hepatic Lipid. Hepatic lipids are extracted as previously described. Liver sample (0.375 g) is homogenized with 1 mL of distilled water for 5 min for the hepatic lipid extraction and analyzed using a triglycerides kit as used for serum lipids.

HFD-fed C57BL/6J mice [3] = test: Histopathology examination of epididymal WAT and liver tissue; assay type: in vivo; conditions: oral gavage daily for 4 weeks
Procedure: as §1
A portion of the collected epididymal WAT and liver tissue is fixed with formalin (200 g/kg) neutral buffered solution and embedded in paraffin. Sections (8 μm) are cut and stained with hematoxylin and eosin. A microscope (Leica, DM2500) and Leica Digital camera (DFC-425-C) are used for microscopic examination and images taken, respectively.

HFD-fed C57BL/6J mice [4] = test: Body weight, food intake and tissue weight in HFD-fed mice; assay type: in vivo; conditions: oral gavage daily for 4 weeks
Procedure: as §1
Body Weight, Food Intake and Tissue Weight. Throughout the embodiment, body weight and food intake are daily recorded at the same time. Body weight gain is defined as the difference between 1 day and the next day. The pellet food is weighed and placed in a cage food container. After 24 h, the remaining food is weighed and the crumbs are collected as much as possible. Based on the difference between 1 day and the next day, the daily food intake is calculated.

## CN(CCOc1ccc(CC2SC(=O)NC2=O)cc1)c1ccccn1 (stereo not drawn) [Rosi, rosiglitazone, reference compound]
Membrane GLUT4
  enhancement of muscular membrane GLUT4 protein: ~2.1 fold
HFD-fed C57BL/6J mice [1]; 10 mg/kg/day
  Blood Profiles FFA: 1.00 ± 0.09 meq/L
  Blood Profiles HDL-C: 73.1 ± 5.8 mg/dL
  Blood Profiles HbA1c: 6.2 ± 0.4 %
  Blood Profiles LDL-C: 86.7 ± 7.7 mg/dL
HFD-fed C57BL/6J mice [2]; 10 mg/kg/day
  Liver Lipids total lipid: 65.1 ± 5.3 mg/g
  Liver Lipids triacylglycerol: 44.5 ± 3.2 µmol/g
HFD-fed C57BL/6J mice [3]; 10 mg/kg/day
  average area of adipocytes (epididymal WAT): 5598.6±162.7 μm2
HFD-fed C57BL/6J mice [4]; 10 mg/kg/day
  Absolute Tissue Weight BAT: 0.175 ± 0.018 g
  Absolute Tissue Weight EWAT: 0.813 ± 0.069 g
  Absolute Tissue Weight Liver: 0.816 ± 0.038 g
  Absolute Tissue Weight MWAT: 0.257 ± 0.019 g
  Absolute Tissue Weight RWAT: 0.244 ± 0.042 g
  Absolute Tissue Weight Skeletal muscle: 0.737 ± 0.094 g
  weight gain: 1.71 ± 0.56 g

## CC(C)OC(=O)C(C)(C)Oc1ccc(C(=O)c2ccc(Cl)cc2)cc1 [Feno, fenofibrate, reference compound]
HFD-fed C57BL/6J mice [1]; 250 mg/kg/day
  decrease of the circulating TG level: 47.9%
  Blood Profiles FFA: 0.94 ± 0.08 meq/L
  Blood Profiles HDL-C: 80.3 ± 4.5 mg/dL
  Blood Profiles HbA1c: 6.4 ± 0.7 %
  Blood Profiles LDL-C: 105.8 ± 10.4 mg/dL
HFD-fed C57BL/6J mice [2]; 250 mg/kg/day
  Liver Lipids total lipid: 63.8 ± 4.7 mg/g
  Liver Lipids triacylglycerol: 48.4 ± 5.6 µmol/g
HFD-fed C57BL/6J mice [3]; 250 mg/kg/day
  average area of adipocytes (epididymal WAT): 4175.4±322.9 μm2
HFD-fed C57BL/6J mice [4]; 250 mg/kg/day
  Absolute Tissue Weight BAT: 0.142 ± 0.012 g
  Absolute Tissue Weight EWAT: 0.924 ± 0.069 g
  Absolute Tissue Weight Liver: 1.046 ± 0.033 g
  Absolute Tissue Weight MWAT: 0.295 ± 0.009 g
  Absolute Tissue Weight RWAT: 0.249 ± 0.028 g
  Absolute Tissue Weight Skeletal muscle: 0.569 ± 0.069 g
  weight gain: 0.69 ± 0.63 g
